SMILES strings stand for the structures.

Assay [1] addresses T1, hcGAS (Homo sapiens, UniProt Q8N884). Kind of assay: hcGAS Kinase-Glo assay (ATP depletion). Type of assay: biochemical. Conditions: 40 nM hcGAS, 100 μM ATP, 100 μM GTP, 25 nM dsDNA, 3 h incubation. As for the experimental part: cGAS catalyzes the cyclization of ATP and GTP to produce cGAMP, which is the activating ligand of STING. Human cGAS (hcGAS) inhibition can thus be quantified by measuring how much cGAMP is formed either indirectly, by monitoring ATP-depletion as in the hcGAS Kinase-Glo assay (as described below), or directly, such as using the hcGAS LCMS assay (as described below).
(i) hcGAS Kinase-Glo Assay
Compounds were tested for their human-cGAS […] inhibition activity using the methodology reported in Lama et al., “Development of human cGAS-specific small molecule inhibitors for repression of dsDNA-triggered interferon expression”, Nature Communications 10, Article number: 2261 (2019), with slight changes to some conditions as shown in Table B.
The results of the assay, expressed in IC50 values, are reported in Table D with the following designations: A represents an IC50 value<0.01 μM; B represents an IC50 value≥0.01 μM and <0.03 μM; C represents an IC50 value≥0.03 μM and <0.1 μM; D represents an IC50 value≥0.1.
(In general: In Kinase-Glo more light means more ATP remaining.)

Assay [2] has as its target T1, hcGAS. The assay can be described thus: hcGAS LCMS assay (direct measurement of cGAMP production). Conditions: 0.5 nM hcGAS, 100 μM ATP, 100 μM GTP, 25 nM dsDNA, 4 h incubation. Type of assay: biochemical. The method in brief:
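Direct LC/MS readout of cGAMP formed: 4-h enzyme–substrate incubation with compound, stopped by acetonitrile/water quench carrying isotope-labelled cGAMP (0.15 mM) as standard. Potency reported as IC50 ranges.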

T1 sequence (Q8N884 whole entry): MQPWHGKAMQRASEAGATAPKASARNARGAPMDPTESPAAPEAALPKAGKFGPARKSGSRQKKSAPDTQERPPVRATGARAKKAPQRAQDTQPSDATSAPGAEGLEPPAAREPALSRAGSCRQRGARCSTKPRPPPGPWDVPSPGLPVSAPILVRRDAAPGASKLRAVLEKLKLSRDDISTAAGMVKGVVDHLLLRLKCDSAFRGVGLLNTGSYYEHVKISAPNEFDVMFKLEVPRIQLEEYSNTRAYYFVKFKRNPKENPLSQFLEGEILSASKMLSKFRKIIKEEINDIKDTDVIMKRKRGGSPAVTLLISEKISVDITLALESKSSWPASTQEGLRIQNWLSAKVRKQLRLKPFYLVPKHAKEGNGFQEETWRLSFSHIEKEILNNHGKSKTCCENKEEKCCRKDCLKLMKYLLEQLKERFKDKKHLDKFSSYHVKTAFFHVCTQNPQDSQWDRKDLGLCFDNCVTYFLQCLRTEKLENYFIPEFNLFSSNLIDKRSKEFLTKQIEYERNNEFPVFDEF

A word on the IC50: it is the midpoint of a concentration-inhibition curve. Consider `COc1c(N2C[C@H](O)[C@H](OC)C2)cc(C(=O)Nc2nnc(-n3nccc3C)s2)oc1=O` (racemic) [Rac-68, 4-((3S,4R)-3-hydroxy-4-methoxypyrrolidin-1-yl)-3-methoxy-N-(5-(5-methyl-1H-pyrazol-1-yl)-1,3,4-thiadiazol-2-yl)-2-oxo-2H-pyran-6-carboxamide], for which the IC50 lay within 0.01 to 0.03 µM in assay [1] and 0.005 to 0.02 µM in assay [2].
In the same order, the values of `COc1c(N[C@H]2CCCC[C@H]2O)cc(C(=O)Nc2nnc(-n3nccc3C)s2)oc1=O` (racemic) [Rac-189, 4-(((1S,2R)-2-hydroxycyclohexyl)amino)-3-methoxy-N-(5-(5-methyl-1H-pyrazol-1-yl)-1,3,4-thiadiazol-2-yl)-2-oxo-2H-pyran-6-carboxamide] are 0.01 to 0.03 µM and 0.005 to 0.02 µM.
For `COCCNc1cc(C(=O)Nc2nnc(-c3cscc3Cl)s2)oc(=O)c1OC` [Compound 136, N-(5-(4-chlorothiophen-3-yl)-1,3,4-thiadiazol-2-yl)-3-methoxy-4-((2-methoxyethyl)amino)-2-oxo-2H-pyran-6-carboxamide], in that order: 0.01 to 0.03 µM and 0.005 to 0.02 µM.
For `COc1c(NCCO)cc(C(=O)Nc2nnc(-c3c(Cl)ccn3C)s2)oc1=O` [Compound 129, N-(5-(3-chloro-1-methyl-1H-pyrrol-2-yl)-1,3,4-thiadiazol-2-yl)-4-((2-hydroxyethyl)amino)-3-methoxy-2-oxo-2H-pyran-6-carboxamide], in that order: < 0.01 µM and 0.005 to 0.02 µM.
On to `COc1c(NCCC#N)cc(C(=O)Nc2nnc(-n3nccc3C)s2)oc1=O` [Compound 176, 4-((2-cyanoethyl)amino)-3-methoxy-N-(5-(5-methyl-1H-pyrazol-1-yl)-1,3,4-thiadiazol-2-yl)-2-oxo-2H-pyran-6-carboxamide], for which the concentration for half-maximal inhibition (IC50) in assay [1] fell in the range of 0.01 to 0.03 µM; in assay [2] it was 0.005 to 0.02 µM.
On to `COc1c(N2CC[C@@H](S(C)(=O)=O)C2)cc(C(=O)Nc2nnc(-n3nccc3C)s2)oc1=O` [Compound 8, (R)-3-methoxy-N-(5-(5-methyl-1H-pyrazol-1-yl)-1,3,4-thiadiazol-2-yl)-4-(3-(methylsulfonyl)pyrrolidin-1-yl)-2-oxo-2H-pyran-6-carboxamide], for which the IC50 lay within 0.01 to 0.03 µM in assay [1] and 0.005 to 0.02 µM in assay [2].
Regarding `COc1c(NC23CC(CC#N)(C2)C3)cc(C(=O)Nc2nnc(-n3nccc3C)s2)oc1=O` [Compound 116, 4-((3-(cyanomethyl)bicyclo[1.1.1]pentan-1-yl)amino)-3-methoxy-N-(5-(5-methyl-1H-pyrazol-1-yl)-1,3,4-thiadiazol-2-yl)-2-oxo-2H-pyran-6-carboxamide], the figures for the IC50 in assay [1] and in assay [2] were 0.01 to 0.03 µM and 0.005 to 0.02 µM, respectively.
As for `COc1c(NC23CC(C2)C3)cc(C(=O)Nc2nnc(-c3c(Cl)ccn3C)s2)oc1=O` [Compound 41, 4-{bicyclo[1.1.1]pentan-1-ylamino}-N-[5-(3-chloro-1-methylpyrrol-2-yl)-1,3,4-thiadiazol-2-yl]-5-methoxy-6-oxopyran-2-carboxamide], the IC50 in assay [1] was < 0.01 µM; in assay [2], < 0.005 µM.
For `COc1c(N[C@H]2CC[C@@H](OC)C2)cc(C(=O)Nc2nnc(-n3nccc3C)s2)oc1=O` (racemic) [Rac-108, 3-methoxy-4-(((cis)-3-methoxycyclopentyl)amino)-N-(5-(5-methyl-1H-pyrazol-1-yl)-1,3,4-thiadiazol-2-yl)-2-oxo-2H-pyran-6-carboxamide], in that order: 0.01 to 0.03 µM and 0.005 to 0.02 µM.
For `COc1c(N[C@@H]2CC[C@@H]2O)cc(C(=O)Nc2nnc(-n3nccc3C)s2)oc1=O` (racemic) [Rac-43, 4-(((1R,2S)-2-hydroxycyclobutyl)amino)-3-methoxy-N-(5-(5-methyl-1H-pyrazol-1-yl)-1,3,4-thiadiazol-2-yl)-2-oxo-2H-pyran-6-carboxamide], in that order: 0.01 to 0.03 µM and 0.005 to 0.02 µM.
For `COc1c(N[C@@H]2CCOC2)cc(C(=O)Nc2nnc(-n3nccc3C)s2)oc1=O` [Compound 184, (R)-3-methoxy-N-(5-(5-methyl-1H-pyrazol-1-yl)-1,3,4-thiadiazol-2-yl)-2-oxo-4-((tetrahydrofuran-3-yl)amino)-2H-pyran-6-carboxamide], in that order: 0.03 to 0.1 µM and 0.02 to 0.06 µM.
Turning to `COc1c(N2CCCC2)cc(C(=O)Nc2nnc(-n3nccc3C)s2)oc1=O` [Compound 216, 3-methoxy-N-(5-(5-methyl-1H-pyrazol-1-yl)-1,3,4-thiadiazol-2-yl)-2-oxo-4-(pyrrolidin-1-yl)-2H-pyran-6-carboxamide], the 50% inhibitory concentration (IC50) in assay [1] was 0.03 to 0.1 µM; in assay [2] it was 0.005 to 0.02 µM.
In the same order, the values of `COc1c(N[C@H]2CCC[C@H]2OC)cc(C(=O)Nc2nnc(-n3nccc3C)s2)oc1=O` (racemic) [Rac-14, 3-methoxy-4-(((1S,2R)-2-methoxycyclopentyl)amino)-N-(5-(5-methyl-1H-pyrazol-1-yl)-1,3,4-thiadiazol-2-yl)-2-oxo-2H-pyran-6-carboxamide] are 0.01 to 0.03 µM and 0.005 to 0.02 µM.
For `COCC(C)(C)Nc1cc(C(=O)Nc2nnc(-n3nccc3C)s2)oc(=O)c1OC` [Compound 76, 3-methoxy-4-((1-methoxy-2-methylpropan-2-yl)amino)-N-(5-(5-methyl-1H-pyrazol-1-yl)-1,3,4-thiadiazol-2-yl)-2-oxo-2H-pyran-6-carboxamide], in that order: 0.01 to 0.03 µM and 0.005 to 0.02 µM.
In the same order, the values of `COCCNc1cc(C(=O)Nc2nnc(-n3nccc3C)s2)oc(=O)c1OC` [Compound 75, 3-methoxy-4-((2-methoxyethyl)amino)-N-(5-(5-methyl-1H-pyrazol-1-yl)-1,3,4-thiadiazol-2-yl)-2-oxo-2H-pyran-6-carboxamide] are 0.03 to 0.1 µM and 0.005 to 0.02 µM.
`COc1c(N2CCCC2=O)cc(C(=O)Nc2nnc(-n3nccc3C)s2)oc1=O` [Compound 42, 3-methoxy-N-(5-(5-methyl-1H-pyrazol-1-yl)-1,3,4-thiadiazol-2-yl)-2-oxo-4-(2-oxopyrrolidin-1-yl)-2H-pyran-6-carboxamide]: the IC50 was < 0.01 µM in assay [1] and < 0.005 µM in assay [2].
For `COc1c(N[C@H]2CC[C@@H](O)C2)cc(C(=O)Nc2nnc(-n3nccc3C)s2)oc1=O` (racemic) [Rac-61, 4-(((1S,3R)-3-hydroxycyclopentyl)amino)-3-methoxy-N-(5-(5-methyl-1H-pyrazol-1-yl)-1,3,4-thiadiazol-2-yl)-2-oxo-2H-pyran-6-carboxamide], in that order: 0.01 to 0.03 µM and 0.005 to 0.02 µM.
Consider `COc1c(N2CC[C@H](S(C)(=O)=O)C2)cc(C(=O)Nc2nnc(-n3nccc3C)s2)oc1=O` [Compound 60, (S)-3-methoxy-N-(5-(5-methyl-1H-pyrazol-1-yl)-1,3,4-thiadiazol-2-yl)-4-(3-(methylsulfonyl)pyrrolidin-1-yl)-2-oxo-2H-pyran-6-carboxamide], for which the IC50 in assay [1] fell in the range of 0.01 to 0.03 µM; in assay [2], 0.005 to 0.02 µM.
For `COc1c(N2CC[C@H](O)C2)cc(C(=O)Nc2nnc(-n3nccc3C)s2)oc1=O` [Compound 110, (S)-4-(3-hydroxypyrrolidin-1-yl)-3-methoxy-N-(5-(5-methyl-1H-pyrazol-1-yl)-1,3,4-thiadiazol-2-yl)-2-oxo-2H-pyran-6-carboxamide], in that order: 0.01 to 0.03 µM and 0.005 to 0.02 µM.
For `COc1c(NC23CC(OC)(C2)C3)cc(C(=O)Nc2nnc(-n3nccc3C)s2)oc1=O` [Compound 111, 3-methoxy-4-((3-methoxybicyclo[1.1.1]pentan-1-yl)amino)-N-(5-(5-methyl-1H-pyrazol-1-yl)-1,3,4-thiadiazol-2-yl)-2-oxo-2H-pyran-6-carboxamide], in that order: 0.01 to 0.03 µM and 0.005 to 0.02 µM.
For `COc1c(N[C@H]2CCS(=O)(=O)C2)cc(C(=O)Nc2nnc(-n3nccc3C)s2)oc1=O` [Compound 62, (S)-4-((1,1-dioxidotetrahydrothiophen-3-yl)amino)-3-methoxy-N-(5-(5-methyl-1H-pyrazol-1-yl)-1,3,4-thiadiazol-2-yl)-2-oxo-2H-pyran-6-carboxamide], in that order: 0.01 to 0.03 µM and 0.005 to 0.02 µM.
Consider `COc1c(N[C@H]2CC[C@H](OC)C2)cc(C(=O)Nc2nnc(-n3nccc3C)s2)oc1=O` (racemic) [Rac-109, 3-methoxy-4-(((trans)-3-methoxycyclopentyl)amino)-N-(5-(5-methyl-1H-pyrazol-1-yl)-1,3,4-thiadiazol-2-yl)-2-oxo-2H-pyran-6-carboxamide], for which the half-inhibitory concentration (IC50) fell in the range of 0.01 to 0.03 µM in assay [1] and 0.005 to 0.02 µM in assay [2].
For `COc1c(NC[C@H](C)OC)cc(C(=O)Nc2nnc(-n3nccc3C)s2)oc1=O` [Compound 187, (S)-3-methoxy-4-((2-methoxypropyl)amino)-N-(5-(5-methyl-1H-pyrazol-1-yl)-1,3,4-thiadiazol-2-yl)-2-oxo-2H-pyran-6-carboxamide], the IC50 in assay [1] was 0.01 to 0.03 µM; in assay [2], 0.005 to 0.02 µM.
For `COC[C@H]1CCCN1c1cc(C(=O)Nc2nnc(-n3nccc3C)s2)oc(=O)c1OC` [Compound 38, (R)-3-methoxy-4-(2-(methoxymethyl)pyrrolidin-1-yl)-N-(5-(5-methyl-1H-pyrazol-1-yl)-1,3,4-thiadiazol-2-yl)-2-oxo-2H-pyran-6-carboxamide], in that order: 0.01 to 0.03 µM and 0.005 to 0.02 µM.

Source of the values: patent US20240270740A1, “INHIBITORS OF CYCLIC GMP-AMP SYNTHASE AND USES THEREOF” (Ventus Therapeutics U.S., Inc., priority 2022, published 2024).
